From US20190112316A1, “THIAZOLO[3,2-A] PYRIMIDINONE AND OTHER HETEROBICYCLIC PYRIMIDINONE COMPOUNDS FOR USE IN MEDICAL THERAPY” (priority 2015, published 2019) come the findings set out here.

Each structure is given as a SMILES string.

In one experiment the target is T1, glucocerebrosidase (Gcase) (Homo sapiens, UniProt P04062).
T1 construct: micellar solution containing 10 nM GCase and 100 nM saposin C (Enzo ALX-201-262-C050)
T1 sequence (P04062 40-536): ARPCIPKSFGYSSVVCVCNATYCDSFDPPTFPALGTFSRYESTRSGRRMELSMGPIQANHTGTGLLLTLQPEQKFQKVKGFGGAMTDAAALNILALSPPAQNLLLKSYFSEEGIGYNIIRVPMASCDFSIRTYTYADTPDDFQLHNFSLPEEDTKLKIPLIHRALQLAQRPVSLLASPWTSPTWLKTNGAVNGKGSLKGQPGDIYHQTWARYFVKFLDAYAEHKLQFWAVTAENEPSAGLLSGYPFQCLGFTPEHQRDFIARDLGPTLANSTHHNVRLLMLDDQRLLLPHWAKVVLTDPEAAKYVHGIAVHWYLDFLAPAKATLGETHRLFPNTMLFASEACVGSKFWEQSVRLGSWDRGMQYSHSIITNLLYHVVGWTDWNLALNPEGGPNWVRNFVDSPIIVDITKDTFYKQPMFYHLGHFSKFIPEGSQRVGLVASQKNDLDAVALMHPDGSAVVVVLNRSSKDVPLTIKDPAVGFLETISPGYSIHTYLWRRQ
The experiment can be described thus: Glucocerebrosidase (Gcase) activation assay, 4-methylumbelliferyl-beta-D-glucopyranoside substrate, with saposin C. The class given is biochemical. The following applies: read-out: Percent Gcase Activation 0.1 μM Test Compound. As for the experimental part: A 484 μL aliquot of a 1.0 mg/mL solution of phosphatidylserine (PS) (Sigma P7769) in chloroform was evaporated under a stream of nitrogen for 1 hour. The lipid film was dissolved over 4 minutes of vigorous vortexing in 40 mL of 176 mM K2HPO4/50 mM citric acid (pH 4.7) containing 7.5 μL of triton X-100, resulting in a mixed micellar preparation with a composition of 0.32 mM triton and 0.37 mol % PS. 4-Methylumbelliferyl-beta-D-glucopyranoside (ACROS-337025000) was dissolved in the micellar solution to a final concentration of 2 mM for use as the reaction substrate.
Test compounds were diluted to the desired concentrations with dimethylsulfoxide (DMSO) from 10 mM stocks, and 0.41 μL of the DMSO compound mixture was added to 100 μL of micellar solution containing 10 nM GCase and 100 nM saposin C (Enzo ALX-201-262-C050). Pre-incubation was allowed to occur for 30 minutes at room temperature, after which the reaction was initiated by combining 25 μL of substrate solution with 25 μL of compound/GCase/saposin mixture. The reaction proceeded for 15 minutes at room temperature and was stopped by adding 150 μL of 1M glycine, pH 12.5. The endpoint of the reaction was monitored by measuring fluorescence intensity (excitation: 365 nm; emission: 440 nm) on a SpectraMax i3 instrument (Molecular Devices). Test compounds were screened at 1.0 and 0.1 μM final concentration, and subsequent 8-point dose response curves were obtained using 3-fold dilutions from a maximum final concentration of 5 μM.
`CCc1ccc(NC(=O)c2cnc3sccn3c2=O)cc1`: the activation at 0.1 µM was 5 to 20%.
On the same count and under the same terms, the result for `CCCCc1ccc(NC(=O)c2cnc3scc(C)n3c2=O)cc1` reads 5 to 20%; that for `CCC(C)c1ccc(NC(=O)c2cnc3sccn3c2=O)cc1` (stereo not drawn), under 5%; that for `Cc1cccc2ncc(C(=O)NC3CCOc4ccccc43)c(=O)n12` (stereo not drawn), under 5%.
In the case of `O=C(Nc1ccc(-c2ccco2)cc1)c1cnc2n(c1=O)CCS2`, the activation at 0.1 µM lay in the range of 5 to 20%.
For the compound `Cc1csc2ncc(C(=O)Nc3ccc(-c4cocn4)cc3)c(=O)n12`, the activation at 0.1 µM is under 5%.

The experiment is the same for the next values; noted with them: read-out: Percent Gcase Activation 1 μM Test Compound.
In the case of `CCCCc1ccc(NC(=O)c2cnc3scc(-c4ccccc4)n3c2=O)cc1`, the activation at 1 µM is over 20%.
Same read-out and setting: the result for `COC(=O)c1ccc(NC(=O)c2cnc3scc(C)n3c2=O)cc1` reads 5 to 20%; that for `Cc1csc2ncc(C(=O)Nc3ccc(N(C)C)cc3)c(=O)n12`, 5 to 20%.
Regarding `COc1ccc(NC(=O)c2cnc3scc(C)n3c2=O)c(OC)c1`, the activation at 1 µM lay within 5 to 20%.
Turning to `COc1cccc(NC(=O)c2cnc3scc(C)n3c2=O)c1`, the activation at 1 µM lay in the range of 5 to 20%.
On to `Cc1csc2ncc(C(=O)Nc3ccc(Cl)cc3)c(=O)n12`, for which the activation at 1 µM was over 20%.
Regarding `CCc1ccc(NC(=O)c2cnc3scc(-c4ccccc4)n3c2=O)cc1`, the activation at 1 µM is over 20%.
On the same count and under the same terms, the figure for `COc1ccc(NC(=O)c2cnc3scc(C)n3c2=O)cc1` is over 20%.
In the case of `Cc1sc2ncc(C(=O)Nc3ccc(C(C)C)cc3)c(=O)n2c1C`, the activation at 1 µM is under 5%.
As for `Cc1ccc(NC(=O)c2cnc3scc(C)n3c2=O)cc1C`, the activation at 1 µM fell in the range of 5 to 20%.
As to `CCOc1ccc(NC(=O)c2cnc3scc(C)n3c2=O)cc1`, the activation at 1 µM is 5 to 20%.
Regarding `Cc1ccc(NC(=O)c2cnc3sc(C)cn3c2=O)cc1`, the activation at 1 µM lay in the range of 5 to 20%.
Still for that read-out and setting: the result for `CCCCOC(=O)c1ccc(NC(=O)c2cnc3scc(C)n3c2=O)cc1` reads over 20%.
In the case of `Cc1ccc(NC(=O)c2cnc3scc(C)n3c2=O)cc1Cl`, the activation at 1 µM was 5 to 20%.
Take `Cc1ccc(NC(=O)c2cnc3sccn3c2=O)cc1C`: the activation at 1 µM is 5 to 20%.
As to `CCc1cccc(NC(=O)c2cnc3scc(C)n3c2=O)c1`, the activation at 1 µM was over 20%.
Turning to `CCc1ccc(NC(=O)c2cnc3sccn3c2=O)cc1`, the activation at 1 µM is over 20%.
Consider `Cc1ccc(NC(=O)c2cnc3scc(C)n3c2=O)c(C)c1`, for which the activation at 1 µM is over 20%.
Consider `CCCCc1ccc(NC(=O)c2cnc3scc(C)n3c2=O)cc1`, for which the activation at 1 µM was over 20%.
As for `Cc1ccc(NC(=O)c2cnc3scc(C)n3c2=O)cc1F`, the activation at 1 µM is 5 to 20%.
On to `Cc1ccccc1NC(=O)c1cnc2scc(C)n2c1=O`, for which the activation at 1 µM fell in the range of 5 to 20%.
On the same count and under the same terms, the figure for `Cc1csc2ncc(C(=O)Nc3ccc(F)cc3)c(=O)n12` is under 5%.
For `CCC(C)c1ccc(NC(=O)c2cnc3sccn3c2=O)cc1` (stereo not drawn), the activation at 1 µM is over 20%.
Take `Cc1ccc(CNC(=O)c2cnc3scc(C)n3c2=O)cc1`: the activation at 1 µM lay in the range of 5 to 20%.
With `CCOc1ccccc1NC(=O)c1cnc2scc(C)n2c1=O`, the activation at 1 µM was 5 to 20%.
Turning to `Cc1cccc2ncc(C(=O)NC3CCOc4ccccc43)c(=O)n12` (stereo not drawn), the activation at 1 µM was 5 to 20%.
Regarding `Cc1cc(C)cc(NC(=O)c2cnc3sccn3c2=O)c1`, the activation at 1 µM is 5 to 20%.
The same measure, in the same setting: the result for `CCCCc1ccc(NC(=O)c2cnc3sc4c(n3c2=O)CCCC4)cc1` reads 5 to 20%; that for `O=C(Nc1ccc(-c2ccco2)cc1)c1cnc2n(c1=O)CCS2`, 5 to 20%; that for `Cc1csc2ncc(C(=O)Nc3ccc(-c4cocn4)cc3)c(=O)n12`, 5 to 20%.
